Test results as given in patent publication US9296757B2, “Substituted benzothienopyrimidines” (BAYER PHARMA AKTIENGESELLSCHAFT, priority 2012, dated 2016).

Target: human full-length MKNK1 (Homo sapiens (Human), UniProt Q9BUB5, T344D)
Experiment: MKNK1 kinase high ATP assay (TR-FRET)
Format: biochemical
Conditions: high ATP (2 mM final), 15 min preincubation with enzyme
Description: MKNK1-inhibitory activity at high ATP of compounds of the present invention after their preincubation with MKNK1 was quantified employing the TR-FRET-based MKNK1 high ATP assay as described in the following paragraphs.
A recombinant fusion protein of Glutathione-S-Transferase (GST, N-terminally) and human full-length MKNK1 (amino acids 1-424 and T344D of accession number BAA 19885.1), expressed in insect cells using baculovirus expression system and purified via glutathione sepharose affinity chromatography, was purchased from Carna Biosciences (product no 02-145) and used as enzyme. As substrate for the kinase reaction the biotinylated peptide biotin-Ahx-IKKRKLTRRKSLKG (C-terminus in amide form) was used, which can be purchased e.g. from the company Biosyntan (Berlin-Buch, Germany).
For the assay 50 nL of a 100 fold concentrated solution of the test compound in DMSO was pipetted into a black low volume 384 well microtiter plate (Greiner Bio-One, Frickenhausen, Germany), 2 μL of a solution of MKNK1 in aqueous assay buffer [50 mM HEPES pH 7.5, 5 mM MgCl2, 1.0 mM dithiothreitol, 0.005% (v/v) Nonidet-P40 (Sigma)] was added and the mixture was incubated for 15 min at 22° C. to allow pre-binding of the test compounds to the enzyme before the start of the kinase reaction. Then the kinase reaction was started by the addition of 3 μL of a solution of adenosine-tri-phosphate (ATP, 3.3 mM=>final conc. in the 5 μL assay volume is 2 mM) and substrate (0.1 μM=>final conc. in the 5 μL assay volume is 0.06 μM) in assay buffer and the resulting mixture was incubated for a reaction time of 30 min at 22° C. The concentration of MKNK1 was adjusted depending of the activity of the enzyme lot and was chosen appropriate to have the assay in the linear range, typical concentrations were in the range of 0.003 μg/mL. The reaction was stopped by the addition of 5 μL of a solution of TR-FRET detection reagents (5 nM streptavidine-XL665 [Cisbio Bioassays, Codolet, France] and 1 nM anti-ribosomal protein S6 (pSer236)-antibody from Invitrogen [#44921G] and 1 nM LANCE EU-W1024 labeled ProteinG [Perkin-Elmer, product no. AD0071]) in an aqueous EDTA-solution (100 mM EDTA, 0.1% (w/v) bovine serum albumin in 50 mM HEPES pH 7.5).
The resulting mixture was incubated for 1 h at 22° C. to allow the formation of complex between the phosphorylated biotinylated peptide and the detection reagents. Subsequently the amount of phosphorylated substrate was evaluated by measurement of the resonance energy transfer from the Eu-chelate to the streptavidine-XL. Therefore, the fluorescence emissions at 620 nm and 665 nm after excitation at 350 nm were measured in a TR-FRET reader, e.g. a Rubystar (BMG Labtechnologies, Offenburg, Germany) or a Viewlux (Perkin-Elmer). The ratio of the emissions at 665 nm and at […] was taken as the measure for the amount of phosphorylated substrate. The data were normalised (enzyme reaction without inhibitor=0% inhibition, all other assay components but no enzyme=100% inhibition).

Chain of human full-length MKNK1 (Q9BUB5 other isoform, or with tags, fused parts or gaps T344D): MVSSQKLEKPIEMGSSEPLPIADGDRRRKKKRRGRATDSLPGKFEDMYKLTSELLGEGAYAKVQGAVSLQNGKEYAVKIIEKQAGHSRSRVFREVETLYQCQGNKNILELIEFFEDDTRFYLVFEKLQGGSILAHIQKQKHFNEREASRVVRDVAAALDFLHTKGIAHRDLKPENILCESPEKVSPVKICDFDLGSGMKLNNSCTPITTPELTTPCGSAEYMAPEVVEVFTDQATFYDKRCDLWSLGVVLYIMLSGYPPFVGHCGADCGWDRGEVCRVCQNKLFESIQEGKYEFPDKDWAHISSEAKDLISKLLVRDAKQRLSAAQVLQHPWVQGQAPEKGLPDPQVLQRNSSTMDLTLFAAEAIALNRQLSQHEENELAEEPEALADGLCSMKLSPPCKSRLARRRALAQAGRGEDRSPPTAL

Compound | IC50
COc1ccc(N(C)C(=O)C2CCc3c(sc4ncnc(Nc5ccc6[nH]c(=O)sc6c5)c34)C2)cc1 (racemic) [Example 42, (RS)-N-(4-methoxyphenyl)-N-methyl-4-[(2-oxo-2,3-dihydro-1,3-benzothiazol-6-yl)amino]-5,6,7,8-tetrahydro[1]benzothieno[2,3-d]pyrimidine-7-carboxamide] | 47 nM
CC(C)OC(=O)NCC1CCc2c(sc3ncnc(Nc4ccc5[nH]c(=O)sc5c4)c23)C1 (racemic) [Example 24, (RS)-Propan-2-yl ({4-[(2-oxo-2,3-dihydro-1,3-benzothiazol-6-yl)amino]-5,6,7,8-tetrahydro[1]benzothieno[2,3-d]pyrimidin-7-yl}methyl)carbamate] | 62 nM
CN1CCN(C(=O)C2CCc3c(sc4ncnc(Nc5ccc6[nH]c(=O)sc6c5)c34)C2)CC1 (racemic) [Example 37, (RS)-6-({7-[(4-methylpiperazin-1-yl)carbonyl]-5,6,7,8-tetrahydro[1]benzothieno[2,3-d]pyrimidin-4-yl}amino)-1,3-benzothiazol-2(3H)-one] | 22 nM
COc1cc2[nH]c(=O)sc2cc1Nc1ncnc2sc3c(c12)CCC(C(=O)O)C3 (stereo not shown) [Example 33, 4-[(5-Methoxy-2-oxo-2,3-dihydro-1,3-benzothiazol-6-yl)amino]-5,6,7,8-tetrahydro[1]benzothieno[2,3-d]pyrimidine-7-carboxylic acid] | 42 nM
O=C(NCc1cccc(F)c1)C1CCc2c(sc3ncnc(Nc4ccc5[nH]c(=O)sc5c4)c23)C1 (racemic) [Example 14, (RS)—N-(3-Fluorobenzyl)-4-[(2-oxo-2,3-dihydro-1,3-benzothiazol-6-yl)amino]-5,6,7,8-tetrahydro[1]benzothieno[2,3-d]pyrimidine-7-carboxamide] | 25 nM
O=c1[nH]c2ccc(Nc3ncnc4sc5c(c34)CCC(CO)C5)cc2s1 (racemic) [Example 18, (RS)-6-{[7-(Hydroxymethyl)-5,6,7,8-tetrahydro[1]benzothieno[2,3-d]pyrimidin-4-yl]amino}-1,3-benzothiazol-2(3H)-one] | 60 nM
CC1CCc2c(sc3ncnc(Nc4ccc5[nH]c(=O)sc5c4)c23)C1 (racemic) [Example 17, (RS)-6-[(7-Methyl-5,6,7,8-tetrahydro[1]benzothieno[2,3-d]pyrimidin-4-yl)amino]-1,3-benzothiazol-2(3H)-one] | 128 nM
O=C(NCc1cccc(C(F)(F)F)c1)C1CCc2c(sc3ncnc(Nc4ccc5[nH]c(=O)sc5c4)c23)C1 (racemic) [Example 10, (RS)-4-[(2-Oxo-2,3-dihydro-1,3-benzothiazol-6-yl)amino]-N-[3-(trifluoromethyl)benzyl]-5,6,7,8-tetrahydro[1]benzothieno[2,3-d]pyrimidine-7-carboxamide] | 11 nM
CN(C)CCN(Cc1ccccc1)C(=O)C1CCc2c(sc3ncnc(Nc4ccc5[nH]c(=O)sc5c4)c23)C1 (racemic) [Example 36, (RS)-N-benzyl-N-[2-(dimethylamino)ethyl]-4-[(2-oxo-2,3-dihydro-1,3-benzothiazol-6-yl)amino]-5,6,7,8-tetrahydro[1]benzothieno[2,3-d]pyrimidine-7-carboxamide] | 9 nM
O=C(NCC1CC1)C1CCc2c(sc3ncnc(Nc4ccc5[nH]c(=O)sc5c4)c23)C1 (racemic) [Example 12, (RS)—N-(Cyclopropylmethyl)-4-[(2-oxo-2,3-dihydro-1,3-benzothiazol-6-yl)amino]-5,6,7,8-tetrahydro[1]benzothieno[2,3-d]pyrimidine-7-carboxamide] | 48 nM
O=C(C1CCc2c(sc3ncnc(Nc4ccc5[nH]c(=O)sc5c4)c23)C1)N1CCN(Cc2ccc3c(c2)OCO3)CC1 (racemic) [Example 44, (RS)-6-[(7-{[4-(1,3-benzodioxol-5-ylmethyl)piperazin-1-yl]carbonyl}-5,6,7,8-tetrahydro[1]benzothieno[2,3-d]pyrimidin-4-yl)amino]-1,3-benzothiazol-2(3H)-one] | 67 nM
CN1CCN(C(=O)C2CCc3c(sc4ncnc(Nc5ccc6[nH]c(=O)sc6c5)c34)C2)CC1 (racemic) [Example 29, (RS)-6-({7-[(4-Methylpiperazin-1-yl)carbonyl]-5,6,7,8-tetrahydro[1]benzothieno[2,3-d]pyrimidin-4-yl}amino)-1,3-benzothiazol-2(3H)-one] | 48 nM
COCC1(OC)CCc2c(sc3ncnc(Nc4ccc5[nH]c(=O)sc5c4)c23)C1 (racemic) [Example 16, (RS)-6-{[7-Methoxy-7-(methoxymethyl)-5,6,7,8-tetrahydro[1]benzothieno[2,3-d]pyrimidin-4-yl]amino}-1,3-benzothiazol-2(3H)-one] | 304 nM

More lines, now with the values ahead:

IC50 | Compound
28 nM | CC(C)N(CCO)C(=O)C1CCc2c(sc3ncnc(Nc4ccc5[nH]c(=O)sc5c4)c23)C1 (racemic) [Example 54, (RS)-N-(2-hydroxyethyl)-N-isopropyl-4-[(2-oxo-2,3-dihydro-1,3-benzothiazol-6-yl)amino]-5,6,7,8-tetrahydro[1]benzothieno[2,3-d]pyrimidine-7-carboxamide]
34 nM | CN1CCN(C(=O)C2CCc3c(sc4ncnc(Nc5ccc6[nH]c(=O)sc6c5)c34)C2)CC1CCO (racemic) [Example 81, 6-{[(7RS)-7-{[(3RS)-3-(2-hydroxyethyl)-4-methylpiperazin-1-yl]carbonyl}-5,6,7,8-tetrahydro[1]benzothieno[2,3-d]pyrimidin-4-yl]amino}-1,3-benzothiazol-2(3H)-one]
0.7 nM | COCCN(CCOC)C(=O)C1CCc2c(sc3ncnc(Nc4cc5sc(=O)[nH]c5cc4OC)c23)C1 (racemic) [Example 93, (RS)—N,N-bis(2-methoxyethyl)-4-[(5-methoxy-2-oxo-2,3-dihydro-1,3-benzothiazol-6-yl)amino]-5,6,7,8-tetrahydro[1]benzothieno[2,3-d]pyrimidine-7-carboxamide]
0.6 nM | COc1cc2[nH]c(=O)sc2cc1Nc1ncnc2sc3c(c12)CCC(C(=O)N(CCN(C)C)Cc1ccccc1)C3 (racemic) [Example 92, (RS)—N-Benzyl-N-[2-(dimethylamino)ethyl]-4-[(5-methoxy-2-oxo-2,3-dihydro-1,3-benzothiazol-6-yl)amino]-5,6,7,8-tetrahydro[1]benzothieno[2,3-d]pyrimidine-7-carboxamide]
72 nM | O=C(C1CCc2c(sc3ncnc(Nc4ccc5[nH]c(=O)sc5c4)c23)C1)N1Cc2ccccc2C1 (racemic) [Example 55, (RS)-6-{[7-(1,3-dihydro-2H-isoindol-2-ylcarbonyl)-5,6,7,8-tetrahydro[1]benzothieno[2,3-d]pyrimidin-4-yl]amino}-1,3-benzothiazol-2(3H)-one]
4 nM | COc1cc2[nH]c(=O)sc2cc1Nc1ncnc2sc3c(c12)CCC(C(=O)N(C)C)C3 (racemic) [Example 85, (RS)-4-[(5-methoxy-2-oxo-2,3-dihydro-1,3-benzothiazol-6-yl)amino]-N,N-dimethyl-5,6,7,8-tetrahydro[1]benzothieno[2,3-d]pyrimidine-7-carboxamide]
1.9 nM | CCCCN(C)C(=O)C1CCc2c(sc3ncnc(Nc4cc5sc(=O)[nH]c5cc4OC)c23)C1 (racemic) [Example 89, (RS)—N-Butyl-4-[(5-methoxy-2-oxo-2,3-dihydro-1,3-benzothiazol-6-yl)amino]-N-methyl-5,6,7,8-tetrahydro[1]benzothieno[2,3-d]pyrimidine-7-carboxamide]
34 nM | CN(C)C1CCN(C(=O)C2CCc3c(sc4ncnc(Nc5ccc6[nH]c(=O)sc6c5)c34)C2)C1 (racemic) [Example 73, 6-{[(7RS)-7-{[(3RS)-3-(dimethylamino)pyrrolidin-1-yl]carbonyl}-5,6,7,8-tetrahydro[1]benzothieno[2,3-d]pyrimidin-4-yl]amino}-1,3-benzothiazol-2(3H)-one]
39 nM | O=C(C1CCc2c(sc3ncnc(Nc4ccc5[nH]c(=O)sc5c4)c23)C1)N1CCN(CCCO)CC1 (racemic) [Example 57, (RS)-6-[(7-{[4-(3-hydroxypropyl)piperazin-1-yl]carbonyl}-5,6,7,8-tetrahydro[1]benzothieno[2,3-d]pyrimidin-4-yl)amino]-1,3-benzothiazol-2(3H)-one]
